Source: ChEMBL document CHEMBL5505995, “Discovery of novel urea derivatives as ferroptosis and autophagy inducer for human colon cancer treatment” (Eur J Med Chem, 2024)
Values belong to the compound of their own block, whether it stands above or below them. Active and inactive are the calls of the source. The calls are words filed in the database; no cut-off is given here.

How the values were obtained:
Assay type in all cases: functional, cell-based
HT-29 [1] = assay: Antiproliferative activity against human HT-29 cells assessed as inhibition of cell growth at 1 to 10 uM incubated for 48 hrs by MTT assay; settings: dose 1-10 µM
HT-29 [2] = assay: Antiproliferative activity against human HT-29 cells assessed as inhibition of cell growth incubated for 48 hrs by MTT assay; settings: HT-29, 48 h
HeLa = assay: Antiproliferative activity against human HeLa cells assessed as inhibition of cell growth incubated for 48 hrs by MTT assay
MCF7 = assay: Antiproliferative activity against human MCF7 cells assessed as inhibition of cell growth incubated for 48 hrs by MTT assay; settings: MCF7, 48 h
HepG2 = assay: Antiproliferative activity against human HepG2 cells assessed as inhibition of cell growth incubated for 48 hrs by MTT assay; settings: HepG2, 48 h
K562 = assay: Antiproliferative activity against human K562 cells assessed as inhibition of cell growth incubated for 48 hrs by MTT assay; settings: K562, 48 h

Compound: COc1ccc2c(c1)NCCN2C(=O)Nc1ccc(Cl)cc1
Activity (HT-29 [1]): Active

Compound: COc1ccc(NC(=O)N2CCNc3cc(OC)ccc32)cc1
Activity (HT-29 [1]): Active

Compound: COC(=O)c1ccc2c(c1)NCCN2C(=O)Nc1ccc(OC)cc1
Activity (HT-29 [1]): inactive

IC50 (HT-29 [2]): 3.25 µM
Compound: COC(=O)c1ccc([C@H]2c3[nH]c4ccccc4c3C[C@H](C(=O)OC)N2C(=O)CCl)cc1

IC50 (HeLa): 6.52 µM
IC50 (MCF7): 40.3 µM
IC50 (HepG2): 20.5 µM
IC50 (K562): 4.57 µM
IC50 (HT-29 [2]): 14.9 µM
Compound: COc1ccc(OC)c(NC(=O)N2CCNc3cc(OC)ccc32)c1
Activity (HT-29 [1]): Active

Compound: Cc1ccc(NC(=O)N2CCNc3ccccc32)cc1
Activity (HT-29 [1]): Active

IC50 (HeLa): 25.4 µM
IC50 (MCF7): 36.4 µM
IC50 (HepG2): 15.7 µM
IC50 (K562): 28.3 µM
IC50 (HT-29 [2]): 28.4 µM
Compound: COc1ccc2c(c1)NCCN2C(=O)NC(C)(C)C
Activity (HT-29 [1]): Active

Compound: COc1ccc(NC(=O)N2CCNc3ccccc32)cc1
Activity (HT-29 [1]): Active

IC50 (HeLa): 16.6 µM
IC50 (MCF7): 48 µM
IC50 (HepG2): 40.4 µM
IC50 (K562): 34.4 µM
IC50 (HT-29 [2]): 28.6 µM
Compound: COc1ccc2c(c1)NCCN2C(=O)Nc1ccccc1C(F)(F)F
Activity (HT-29 [1]): Active

Compound: O=C(Nc1ccc(OC(F)(F)F)cc1)N1CCNc2ccccc21
Activity (HT-29 [1]): Active

Compound: COc1ccc2c(c1)NCCN2C(=O)Nc1c(C)cccc1C
Activity (HT-29 [1]): Active

IC50 (HeLa): 22.7 µM
IC50 (MCF7): > 50 µM
IC50 (HepG2): 17.6 µM
IC50 (K562): 19.4 µM
IC50 (HT-29 [2]): 26.6 µM
Compound: COc1ccc2c(c1)NCCN2C(=O)Nc1ccccc1C
Activity (HT-29 [1]): Active

Compound: COc1cccc(NC(=O)N2CCNc3cc(OC)ccc32)c1
Activity (HT-29 [1]): Active

Compound: COc1ccc2c(c1)NCCN2C(=O)Nc1ccc(N)cc1
Activity (HT-29 [1]): Active

IC50 (HeLa): 10.3 µM
IC50 (MCF7): 9.81 µM
IC50 (HepG2): 11.2 µM
IC50 (HT-29 [2]): 3.56 µM
Compound: CNC(=O)c1cc(Oc2ccc(NC(=O)Nc3ccc(Cl)c(C(F)(F)F)c3)cc2)ccn1 [SORAFENIB]

Compound: COc1ccc2c(c1)NCCN2C(=O)Nc1ccc(Cl)c(C(F)(F)F)c1
Activity (HT-29 [1]): Active

Compound: COc1ccccc1NC(=O)N1CCNc2ncccc21
Activity (HT-29 [1]): inactive

Compound: Cc1ccc(NC(=O)N2CCNc3ncccc32)cc1
Activity (HT-29 [1]): inactive

Compound: CCNC(=O)N1CCNc2cc(OC)ccc21
Activity (HT-29 [1]): Active

IC50 (HeLa): 11.7 µM
IC50 (MCF7): > 50 µM
IC50 (HepG2): 43.5 µM
IC50 (K562): 49.1 µM
IC50 (HT-29 [2]): 19.1 µM
Compound: COc1ccc2c(c1)NCCN2C(=O)Nc1ccccc1OC
Activity (HT-29 [1]): Active

Compound: COc1ccc2c(c1)NCCN2C(=O)NCCCCl
Activity (HT-29 [1]): Active

Compound: O=C(Nc1cccc2ccccc12)N1CCNc2ccccc21
Activity (HT-29 [1]): Active

Compound: COc1ccc2c(c1)NCCN2C(=O)Nc1cccc2ccccc12
Activity (HT-29 [1]): inactive

Compound: COc1ccc2c(c1)NCCN2C(=O)Nc1ccc(OC(F)(F)F)cc1
Activity (HT-29 [1]): Active

Compound: CC(C)NC(=O)N1CCNc2ccccc21
Activity (HT-29 [1]): Active

Compound: COC(=O)c1ccc2c(c1)NCCN2C(=O)Nc1ccc(C)cc1
Activity (HT-29 [1]): inactive

Compound: COc1ccc2c(c1)NCCN2C(=O)Nc1ccc(C)cc1
Activity (HT-29 [1]): Active

Compound: COc1ccc2c(c1)NCCN2C(=O)NC1CCCCC1
Activity (HT-29 [1]): Active

Compound: CCOc1ccccc1-n1c(C(C)N2CCN(C(=O)COc3ccc(Cl)cc3)CC2)nc2ccccc2c1=O (stereo not drawn) [ERASTIN]
IC50 (HT-29 [2]): 20.9 µM

Compound: O=C(NCCCl)N1CCNc2ncccc21
Activity (HT-29 [1]): inactive
